Patent publication US20230278984A1 (Global Blood Therapeutics, Inc., priority 2020, published 2023)

Target: T1, Human pyruvate kinase R (PKR) (Homo sapiens, UniProt P30613)
T1 construct: Human pyruvate kinase R (PKR), residues 14-574; 6x-His (N, cleaved yes); 8x-Arg (N, cleaved yes); SUMO (N, cleaved yes); host or cells: E. coli
Assay: Biochemical assay for activation of pyruvate kinase R (Kinase-Glo luminescence measurement of ATP generation)
Conditions: for AC50: PKR biochemical assay, 0.1 nM PKR, 0.3 mM ADP, 2 mM FBP, 0.1 mM PEP; for Emax: maximal activation level relative to the activation level achieved by the literature compound AG-348 @ 10 μM
Outline: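 Recombinant human PKR (residues 14-574), E. coli-expressed with His-Arg-SUMO tag removed, purified by Ni-NTA, anion exchange and size exclusion. Activation measured as ATP generation via Kinase-Glo luminescence.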

T1 sequence (P30613 14-574): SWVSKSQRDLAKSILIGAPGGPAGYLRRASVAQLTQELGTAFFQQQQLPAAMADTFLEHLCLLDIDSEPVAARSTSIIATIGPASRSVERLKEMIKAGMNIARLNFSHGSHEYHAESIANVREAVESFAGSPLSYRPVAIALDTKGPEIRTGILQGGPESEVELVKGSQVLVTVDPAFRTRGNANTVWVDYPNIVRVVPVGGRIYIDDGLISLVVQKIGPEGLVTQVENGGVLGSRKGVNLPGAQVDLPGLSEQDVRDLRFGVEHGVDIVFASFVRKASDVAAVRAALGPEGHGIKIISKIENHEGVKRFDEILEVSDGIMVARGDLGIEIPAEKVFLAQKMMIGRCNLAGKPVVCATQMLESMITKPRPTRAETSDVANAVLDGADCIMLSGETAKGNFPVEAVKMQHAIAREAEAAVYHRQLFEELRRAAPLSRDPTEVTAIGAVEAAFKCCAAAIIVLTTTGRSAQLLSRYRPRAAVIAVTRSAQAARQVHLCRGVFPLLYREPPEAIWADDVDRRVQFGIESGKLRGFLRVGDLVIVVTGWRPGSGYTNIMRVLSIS

| AC50 [nM] | Emax [%] | SMILES |
| --- | --- | --- |
| 30 | 107 | O=C(NCc1nc(CF)nn1-c1ccc(Cl)c(F)c1)NCc1n[nH]c(=O)n1-c1ccc(Cl)c(F)c1 [Compound 107, 1-{[1-(4-chloro-3-fluorophenyl)-3-(fluoromethyl)-1H-1,2,4-triazol-5-yl]methyl}-3-{[4-(4-chloro-3-fluorophenyl)-5-oxo-4,5-dihydro-1H-1,2,4-triazol-3-yl]methyl}urea] |
| 900 | 74 | Cc1nc(CNC(=O)NCc2ncnn2-c2cc(F)c3cncnc3c2)n(-c2ccc(Cl)c(F)c2)n1 [Compound 108, 1-{[1-(4-chloro-3-fluorophenyl)-3-methyl-1H-1,2,4-triazol-5-yl]methyl}-3-{[1-(5-fluoroquinazolin-7-yl)-1H-1,2,4-triazol-5-yl]methyl}urea] |
| 110 | 96 | O=C(NCC1=NC2(CC2)C(=O)N1Cc1ccc(F)cc1)NCc1ncnn1-c1ccc(Cl)c(F)c1 [Compound 109, 1-{[1-(4-chloro-3-fluorophenyl)-1H-1,2,4-triazol-5-yl]methyl}-3-({6-[(4-fluorophenyl)methyl]-7-oxo-4,6-diazaspiro[2.4]hept-4-en-5-yl}methyl)urea] |
| 61 | 83 | O=C(NCC1=NC2(CC2)C(=O)N1Cc1ccc(F)cc1)NCc1ncnn1-c1ccc2cccnc2c1 [Compound 110, 3-({6-[(4-fluorophenyl)methyl]-7-oxo-4,6-diazaspiro[2.4]hept-4-en-5-yl}methyl)-1-{[1-(quinolin-7-yl)-1H-1,2,4-triazol-5-yl]methyl}urea] |
| 140 | 105 | Cc1nc(CNC(=O)NCC2=NC3(CC3)C(=O)N2c2ccc3cccnc3c2)n(-c2ccc(Cl)c(F)c2)n1 [Compound 111, 1-{[1-(4-chloro-3-fluorophenyl)-3-methyl-1H-1,2,4-triazol-5-yl]methyl}-3-{[7-oxo-6-(quinolin-7-yl)-4,6-diazaspiro[2.4]hept-4-en-5-yl]methyl}urea] |
| 802 | 126 | Cc1nc(CNC(=O)NCC2=NC3(CCC3)C(=O)N2c2ccc3cccnc3c2)n(-c2ccc(Cl)c(F)c2)n1 [Compound 112, 1-{[1-(4-chloro-3-fluorophenyl)-3-methyl-1H-1,2,4-triazol-5-yl]methyl}-3-{[8-oxo-7-(quinolin-7-yl)-5,7-diazaspiro[3.4]oct-5-en-6-yl]methyl}urea] |
| 40 | 116 | Cc1nc(CNC(=O)NCc2ncnn2-c2cc(C)c3cccnc3c2)n(-c2ccc(Cl)c(F)c2)n1 [Compound 113, 1-{[1-(4-chloro-3-fluorophenyl)-3-methyl-1H-1,2,4-triazol-5-yl]methyl}-3-{[1-(5-methylquinolin-7-yl)-1H-1,2,4-triazol-5-yl]methyl}urea] |
| 670 | 61 | Cc1ccc(-n2nnnc2CNC(=O)NCc2nnnn2-c2ccc(C)cc2F)c(F)c1 [Compound 114, 1,3-bis({[1-(2-fluoro-4-methylphenyl)-1H-1,2,3,4-tetrazol-5-yl]methyl})urea] |
| 1700 | 148 | O=C(NCc1nnnn1-c1ccc(C(F)(F)F)cc1)NCc1nnnn1-c1ccc(C(F)(F)F)cc1 [Compound 115, 1,3-bis({1-[4-(trifluoromethyl)phenyl]-1H-1,2,3,4-tetrazol-5-yl}methyl)urea] |
| 89 | 39 | O=C(NCc1ncnn1-c1ccc(Cl)nc1)NCc1ncnn1-c1ccc(Cl)nc1 [Compound 116, 1,3-bis({[1-(6-chloropyridin-3-yl)-1H-1,2,4-triazol-5-yl]methyl})urea] |
| 2600 | 53 | COc1ccc(-n2ncnc2CNC(=O)NCc2ncnn2-c2ccc(OC)nc2)cn1 [Compound 117, 1,3-bis({[1-(6-methoxypyridin-3-yl)-1H-1,2,4-triazol-5-yl]methyl})urea] |
| 47 | 36 | COc1ccc(-n2ncnc2CNC(=O)NCc2ncnn2-c2ccc(Cl)c(F)c2)cn1 [Compound 118, 3-{[1-(4-chloro-3-fluorophenyl)-1H-1,2,4-triazol-5-yl]methyl}-1-{[1-(6-methoxypyridin-3-yl)-1H-1,2,4-triazol-5-yl]methyl}urea] |
| 1100 | 31 | O=C(NCc1ncnn1-c1ccc(O)nc1)NCc1ncnn1-c1ccc(Cl)c(F)c1 [Compound 119, 3-{[1-(4-chloro-3-fluorophenyl)-1H-1,2,4-triazol-5-yl]methyl}-1-{[1-(6-hydroxypyridin-3-yl)-1H-1,2,4-triazol-5-yl]methyl}urea] |
| 220 | 51 | CCN(Cc1ncnn1-c1ccc(Cl)c(F)c1)C(=O)NCc1ncnn1-c1ccc(OC)nc1 [Compound 120, 3-{[1-(4-chloro-3-fluorophenyl)-1H-1,2,4-triazol-5-yl]methyl}-3-ethyl-1-{[1-(6-methoxypyridin-3-yl)-1H-1,2,4-triazol-5-yl]methyl}urea] |
| 7800 | 47 | CCN(Cc1ncnn1-c1ccc(Cl)c(F)c1)C(=O)NCc1ncnn1-c1ccc(O)nc1 [Compound 121, 3-{[1-(4-chloro-3-fluorophenyl)-1H-1,2,4-triazol-5-yl]methyl}-3-ethyl-1-{[1-(6-hydroxypyridin-3-yl)-1H-1,2,4-triazol-5-yl]methyl}urea] |
| 190 | 42 | CCN(Cc1ncnn1-c1ccc(OC)nc1)C(=O)NCc1ncnn1-c1ccc(Cl)c(F)c1 [Compound 122, 3-{[1-(4-chloro-3-fluorophenyl)-1H-1,2,4-triazol-5-yl]methyl}-1-ethyl-1-{[1-(6-methoxypyridin-3-yl)-1H-1,2,4-triazol-5-yl]methyl}urea] |
| 140 | 70 | COc1ccc(-n2ncnc2CNC(=O)NCc2nc(C)nn2-c2ccc(Cl)c(F)c2)cn1 [Compound 123, 3-{[1-(4-chloro-3-fluorophenyl)-3-methyl-1H-1,2,4-triazol-5-yl]methyl}-1-{[1-(6-methoxypyridin-3-yl)-1H-1,2,4-triazol-5-yl]methyl}urea] |
| 270 | 79 | CCN(Cc1ncnn1-c1ccc(OC)nc1)C(=O)NCc1nc(C)nn1-c1ccc(Cl)c(F)c1 [Compound 124, 3-{[1-(4-chloro-3-fluorophenyl)-3-methyl-1H-1,2,4-triazol-5-yl]methyl}-1-ethyl-1-{[1-(6-methoxypyridin-3-yl)-1H-1,2,4-triazol-5-yl]methyl}urea] |
| 3800 | 81 | Cc1nc(CNC(=O)NCc2ncnn2-c2cc3ccccc3cn2)n(-c2ccc(Cl)c(F)c2)n1 [Compound 125, 1-{[1-(4-chloro-3-fluorophenyl)-3-methyl-1H-1,2,4-triazol-5-yl]methyl}-3-{[1-(isoquinolin-3-yl)-1H-1,2,4-triazol-5-yl]methyl}urea] |
| 67 | 84 | Cc1nc(CNC(=O)NCc2ncnn2-c2cnc3ccccc3c2)n(-c2ccc(Cl)c(F)c2)n1 [Compound 126, 1-{[1-(4-chloro-3-fluorophenyl)-3-methyl-1H-1,2,4-triazol-5-yl]methyl}-3-{[1-(quinolin-3-yl)-1H-1,2,4-triazol-5-yl]methyl}urea] |
| 47 | 45 | Cc1nc(CNC(=O)NCc2ncnn2-c2ccc3ncncc3c2)n(-c2ccc(Cl)c(F)c2)n1 [Compound 127, 1-{[1-(4-chloro-3-fluorophenyl)-3-methyl-1H-1,2,4-triazol-5-yl]methyl}-3-{[1-(quinazolin-6-yl)-1H-1,2,4-triazol-5-yl]methyl}urea] |
| 24 | 59 | Cc1nc(CNC(=O)NCc2ncnn2-c2ccn3ccnc3c2)n(-c2ccc(Cl)c(F)c2)n1 [Compound 128, 1-{[1-(4-chloro-3-fluorophenyl)-3-methyl-1H-1,2,4-triazol-5-yl]methyl}-3-[(1-{imidazo[1,2-a]pyridin-7-yl}-1H-1,2,4-triazol-5-yl)methyl]urea] |
| 430 | 72 | Cc1nc(CNC(=O)NCc2ncnn2-c2cccnc2)n(-c2ccc(Cl)c(F)c2)n1 [Compound 129, 1-{[1-(4-chloro-3-fluorophenyl)-3-methyl-1H-1,2,4-triazol-5-yl]methyl}-3-{[1-(pyridin-3-yl)-1H-1,2,4-triazol-5-yl]methyl}urea] |
| 300 | 84 | COc1ccc(-n2ncnc2CNC(=O)NCc2nc(C)nn2-c2ccc(Cl)c(F)c2)nc1 [Compound 130, 1-{[1-(4-chloro-3-fluorophenyl)-3-methyl-1H-1,2,4-triazol-5-yl]methyl}-3-{[1-(5-methoxypyridin-2-yl)-1H-1,2,4-triazol-5-yl]methyl}urea] |
| 78 | 94 | Cc1nc(CNC(=O)NCc2ncnn2-c2ccc(C3CC3)nc2)n(-c2ccc(Cl)c(F)c2)n1 [Compound 131, 1-{[1-(4-chloro-3-fluorophenyl)-3-methyl-1H-1,2,4-triazol-5-yl]methyl}-3-{[1-(6-cyclopropylpyridin-3-yl)-1H-1,2,4-triazol-5-yl]methyl}urea] |
| 490 | 64 | Cc1nc(CNC(=O)NCc2ncnn2-c2ccc(C3CCC3)nc2)n(-c2ccc(Cl)c(F)c2)n1 [Compound 132, 1-{[1-(4-chloro-3-fluorophenyl)-3-methyl-1H-1,2,4-triazol-5-yl]methyl}-3-{[1-(6-cyclobutylpyridin-3-yl)-1H-1,2,4-triazol-5-yl]methyl}urea] |
| 160 | 86 | Cc1nc(CNC(=O)NCc2ncnn2-c2cncc(C3CC3)c2)n(-c2ccc(Cl)c(F)c2)n1 [Compound 133, 1-{[1-(4-chloro-3-fluorophenyl)-3-methyl-1H-1,2,4-triazol-5-yl]methyl}-3-{[1-(5-cyclopropylpyridin-3-yl)-1H-1,2,4-triazol-5-yl]methyl}urea] |
| 170 | 110 | COc1cncc(-n2ncnc2CNC(=O)NCc2nc(C)nn2-c2ccc(Cl)c(F)c2)c1 [Compound 134, 1-{[1-(4-chloro-3-fluorophenyl)-3-methyl-1H-1,2,4-triazol-5-yl]methyl}-3-{[1-(5-methoxypyridin-3-yl)-1H-1,2,4-triazol-5-yl]methyl}urea] |
